Assays:
[1] = Hygroscopicity determination (humidity chambers); type: physicochemical; conditions: 75% relative humidity, 25° C., 8 hours
Protocol: The hygroscopicity profiles for a sample from each of vials 1-5, as well as cis-itraconazole free base, were determined by exposing a sample from each of vials 1-5 to four different environments of varying relative humidity (namely, 0%, 30%, 57%, and 75%), and incubating the samples in that environment for about 8 hours at room temperature (20-25° C.). The humidity chambers consisted of desiccators with desiccants/salt baths in the bottom, above which the open vials containing samples were suspended.
The relative hygroscopicity of each sample was determined using methods well known to one skilled in the pharmaceutical arts as reported in “Pharmaceutical Preformulation & Formulation: A Practical Guide From Candidate Drug Selection to Commercial Dosage Form,” Ed. Mark Gibson, published by IHS Health Group Co, p. 49 (2001), which is incorporated herein by reference in its entirety.

[2] = Physical form after incubation in pH 1 buffer (PXRD); type: physicochemical; conditions: 2 hours, room temperature
Protocol: 70 μl of pH 1 buffer (1 N HCl adjusted to pH 1 using 1 N NaOH) was added to the same well. The sample was incubated at room temperature with vigorous mixing for 2 hours. At the end of the assay, the 384 well plate was centrifuged for 2 minutes at 500 xg and the supernatant was removed by aspiration.
The remaining solid state was analyzed by X-ray powder diffraction in a borosilicate tube, but otherwise using the same equipment, software, procedures, and parameters described in Example 1.

[3] = Solubility in pH 1 buffer (HPLC-UV); type: physicochemical
Protocol: Beginning with the longest time point, pH 1 buffer (1 N HCl adjusted to pH 1 using 1 N NaOH) was added to each of the wells containing samples until completion of the shortest time points. The samples were vigorously stirred throughout the experiment. At the end of the assay, the solution and solid states of all the samples were separated by centrifugation in a polyvinylidene fluoride 96-well filter plate for 2 minutes at 500 xg.
Approximately 30 μl of solution was collected from the solution state of each sample and diluted in 120 μl of methanol in glass vials. Aluminum caps were crimped on the vial tops to prevent evaporation of methanol.

[4] = Solubility in THF (observation during synthesis); type: physicochemical; conditions: up to 70° C.
Description: Thereafter, the vials were removed from the oven, the caps from all the bottles were removed, and the samples were allowed to evaporate in air under ambient conditions. Once significant amounts of solids were present in a sample, the remaining liquid in the sample was removed by pipetting out the liquid phase and using suction filtration with Whatman filter paper to rescue any solid that may have been dispersed in the liquid phase. The remaining solid in the liquid phase and the filtrate were dried in the vacuum oven (VWR Scientific, Model # 1400E) under vacuum for at least 12 hours. With regard to vial 3, the solid crashed out of solution as soon as the acid was added and never went into solution even at 70° C.; however, the solid in the sample was harvested in the same manner as the other samples.

[5] = cited from earlier work

CCC(C)n1ncn(-c2ccc(N3CCN(c4ccc(OCC5COC(Cn6cncn6)(c6ccc(Cl)cc6Cl)O5)cc4)CC3)cc2)c1=O.O=C(O)C=CC(=O)O (stereo not drawn) [cis-itraconazole fumaric acid co-crystal]
relative hygroscopicity [1]: slightly hygroscopic (greater than 0.2% and less than 2% weight loss after incubation in 75% relative humidity at 25 °C for 8 hours) | solid state form after incubation [2]: did not change form | solubility relative to free base ([3]; 15 minutes): at least 4 fold | solubility relative to free base ([3]; 4 hours): approximately 1.5 fold

CCC(C)n1ncn(-c2ccc(N3CCN(c4ccc(OCC5COC(Cn6cncn6)(c6ccc(Cl)cc6Cl)O5)cc4)CC3)cc2)c1=O.O=P(O)(O)O (stereo not drawn) [cis-itraconazole phosphate]
relative hygroscopicity [1]: slightly hygroscopic (greater than 0.2% and less than 2% weight loss after incubation in 75% relative humidity at 25 °C for 8 hours)

CCC(C)n1ncn(-c2ccc(N3CCN(c4ccc(OCC5COC(Cn6cncn6)(c6ccc(Cl)cc6Cl)O5)cc4)CC3)cc2)c1=O.O=S(=O)(O)O (stereo not drawn) [cis-itraconazole sulfate]
relative hygroscopicity [1]: hygroscopic (greater than 2% and less than 15% weight loss after incubation in 75% relative humidity at 25 °C for 8 hours) | solubility in THF [4]: insoluble or only slightly soluble in THF

CCC(C)n1ncn(-c2ccc(N3CCN(c4ccc(OCC5COC(Cn6cncn6)(c6ccc(Cl)cc6Cl)O5)cc4)CC3)cc2)c1=O.O=S(=O)(O)c1ccccc1 (stereo not drawn) [cis-itraconazole benzensulfonate]
relative hygroscopicity [1]: hygroscopic (greater than 2% and less than 15% weight loss after incubation in 75% relative humidity at 25 °C for 8 hours)

CCC(C)n1ncn(-c2ccc(N3CCN(c4ccc(OC[C@H]5CO[C@](Cn6cncn6)(c6ccc(Cl)cc6Cl)O5)cc4)CC3)cc2)c1=O (mixture of isomers) [cis-itraconazole free base, (±)cis-4-[4-[4-[4-[[2-(2,4-dichlorophenyl)-2-(1H-1,2,4-triazol-1-ylmethyl)-1,3-dioxolan-4-yl]methoxy]phenyl]-1-piperazinyl]phenyl]-2,4-dihydro-2-(1-methylpropyl)-3H-1,2,4-triazol-3-one, reference compound]
change of solubility with time ([3]; measured period up to 120 minutes): did not change over the measured period of time | solubility in water [5]: only very sparingly soluble in water

CCC(C)n1ncn(-c2ccc(N3CCN(c4ccc(OCC5COC(Cn6cncn6)(c6ccc(Cl)cc6Cl)O5)cc4)CC3)cc2)c1=O.O=C(O)C(O)C(O)C(=O)O (racemic) [cis-itraconazole DL-tartrate]
relative hygroscopicity [1]: slightly hygroscopic (greater than 0.2% and less than 2% weight loss after incubation in 75% relative humidity at 25 °C for 8 hours)
